# Molecular target: T1, ERR1 (also known as ERR-α or ERR-1) (Homo sapiens, UniProt P11474)
# T1 sequence (P11474 193-421 limits assumed): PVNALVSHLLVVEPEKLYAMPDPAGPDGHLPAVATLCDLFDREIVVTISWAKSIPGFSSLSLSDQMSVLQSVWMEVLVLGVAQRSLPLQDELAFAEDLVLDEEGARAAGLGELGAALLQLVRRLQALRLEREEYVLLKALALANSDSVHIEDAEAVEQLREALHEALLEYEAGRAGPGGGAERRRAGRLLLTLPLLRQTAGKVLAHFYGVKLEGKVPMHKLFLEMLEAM
# Assay: TR-FRET assay (disruption of co-activator peptide binding)
# Assay type: biochemical
# Details: 6His-tagged ERR1 LBD, GST-hSRC2 co-activator polypeptide; average of 3 independent experiments
# Experimental: Time-Resolved Fluorescence Resonance Energy Transfer (TR-FRET) experiments were performed to examine the functional response of ERR1 (also known as ERR-α or ERR-1) ligands. The TR-FRET assay described herein relied on the conformation of ERR1 for binding to a co-activator peptide: when a test compound binds to ERR1 and alters its conformation, it can disrupt the binding of the co-activator peptide. The components of this homogeneous secondary assay included: the ^6His-tagged-ERR1LBD, a GST-labeled-hSRC2 co-activator polypeptide and a fluorescent donor/acceptor pair from CIS bio international htrf/bioassays (Bedford, Mass.) using both an α-GST Europium Cryptate (Eu) label and an α^6His-XL665 (allophycocyanin) fluorophore.
# For TR-FRET measurements, the reaction was buffered in 25 mM Tris pH 8, 2.5 mM Hepes, 20 mM KCl, 1 mM DTT, and 0.05 mg/mL BSA (-lipids). The final concentrations of reagents were 6 nM of ERR1LBD, 6 nM GST-SRC-2 peptide, 30 nM Eu cryptate, and 7.5 nM XL665. Reactions were allowed to reach equilibrium at 25° C. for 4-18 hours before collecting data on the Analyst from LJL Biosystems (Molecular Devices Sunnyvale, Calif.). As a time-resolved method, the samples were excited at […] and emission was collected for 1 ms at both 615 and 665 nm with delays of 400 and 75 μs, respectively. Dose response curves were fitted using a hyperbolic equation and the data reported is the average of 3 independent experiments.
row,EC50,SMILES
1,7.8 nM,"COc1ccc(Cn2ncc3cc(/C=C4\SC(N5CC[C@H]5C(=O)O)=NC4=O)ccc32)c(C(F)(F)F)c1 [Example 50, 1-{5-[1-(4-Methoxy-2-trifluoromethyl-benzyl)-1H-indazol-5-ylmethylene]-4-oxo-4,5-dihydro-thiazol-2-yl}-azetidine-2-(S)-carboxylic acid]"
2,9 nM,"COc1ccc(Cn2ncc3cc(/C=C4\SC(N5CCC[C@H](N)C5)=NC4=O)ccc32)c(C(F)(F)F)c1 [Example 51, 2-(3-(S)-Amino-piperidin-1-yl)-5-[1-(4-methoxy-2-trifluoromethyl-benzyl)-1H-indazol-5-ylmethylene]-thiazol-4-one]"
3,13 nM,"N[C@@H]1CCCN(C2=NC(=O)/C(=C/c3ccc4c(cnn4Cc4ccc(C(F)(F)F)cc4C(F)(F)F)c3)S2)C1 [Example 53, 2-(3-(R)-Amino-piperidin-1-yl)-5-[1-(2,4-bis-trifluoromethyl-benzyl)-1H-indazol-5-ylmethylene]-thiazol-4-one]"
4,61 nM,"O=C1N=C(N2CCCNCC2)S/C1=C\c1ccc2c(cnn2Cc2ccc(C(F)(F)F)cc2C(F)(F)F)c1 [Example 55, 5-[1-(2,4-Bis-trifluoromethyl-benzyl)-1H-indazol-5-ylmethylene]-2-[1,4]diazepan-1-yl-thiazol-4-one]"
5,12.1 nM,"NC1CCN(C2=NC(=O)/C(=C/c3ccc4c(cnn4Cc4ccc(Cl)cc4C(F)(F)F)c3)S2)CC1 [Example 57, 2-(4-Amino-piperidin-1-yl)-5-[1-(4-chloro-2-trifluoromethyl-benzyl)-1H-indazol-5-ylmethylene]-thiazol-4-one]"
6,42 nM,"O=C1N=C(N2CCN(CC(F)(F)F)CC2)S/C1=C\c1ccc2c(cnn2Cc2ccc(Cl)cc2C(F)(F)F)c1 [Example 58, 5-[1-(4-Chloro-2-trifluoromethyl-benzyl)-1H-indazol-5-ylmethylene]-2-[4-(2,2,2-trifluoro-ethyl)-piperazin-1-yl]-thiazol-4-one]"
7,23 nM,"N[C@@H]1CCCN(C2=NC(=O)/C(=C/c3ccc4c(cnn4Cc4ccc(Cl)cc4C(F)(F)F)c3)S2)C1 [Example 59, 2-(3-(R)-Amino-piperidin-1-yl)-5-[1-(4-chloro-2-trifluoromethyl-benzyl)-1H-indazol-5-ylmethylene]-thiazol-4-one]"
8,19.7 nM,"N[C@H]1CCCN(C2=NC(=O)/C(=C/c3ccc4c(cnn4Cc4ccc(Cl)cc4C(F)(F)F)c3)S2)C1 [Example 60, 2-(3-(S)-Amino-piperidin-1-yl)-5-[1-(4-chloro-2-trifluoromethyl-benzyl)-1H-indazol-5-ylmethylene]-thiazol-4-one]"
9,19.6 nM,"O=C1N=C(N2CCN(CC(F)F)CC2)S/C1=C\c1ccc2c(cnn2Cc2ccc(Cl)cc2C(F)(F)F)c1 [Example 61, 5-[1-(4-Chloro-2-trifluoromethyl-benzyl)-1H-indazol-5-ylmethylene]-2-[4-(2,2-difluoro-ethyl)-piperazin-1-yl]-thiazol-4-one]"
10,54 nM,"CCN1CCN(C2=NC(=O)/C(=C/c3ccc4c(cnn4Cc4ccc(Cl)cc4C(F)(F)F)c3)S2)CC1 [Example 63, 5-[1-(4-Chloro-2-trifluoromethyl-benzyl)-1H-indazol-5-ylmethylene]-2-(4-ethyl-piperazin-1-yl)-thiazol-4-one]"
11,17 nM,"C[C@H]1CN(C2=NC(=O)/C(=C/c3ccc4c(cnn4Cc4ccc(Cl)cc4C(F)(F)F)c3)S2)[C@@H](C)CN1 [Example 65, 5-[1-(4-Chloro-2-trifluoromethyl-benzyl)-1H-indazol-5-ylmethylene]-2-(2-(S),5-(S)-dimethyl-piperazin-1-yl)-thiazol-4-one]"
12,24.9 nM,"COCCN1CCN(C2=NC(=O)/C(=C/c3ccc4c(cnn4Cc4ccc(C(F)(F)F)cc4C(F)(F)F)c3)S2)CC1 [Example 66, 5-[1-(2,4-Bis-trifluoromethyl-benzyl)-1H-indazol-5-ylmethylene]-2-[4-(2-methoxy-ethyl)-piperazin-1-yl]-thiazol-4-one]"
13,21 nM,"CCN1CCN(C2=NC(=O)/C(=C/c3ccc4c(cnn4Cc4ccc(C(F)(F)F)cc4C(F)(F)F)c3)S2)CC1 [Example 67, 5-[1-(2,4-Bis-trifluoromethyl-benzyl)-1H-indazol-5-ylmethylene]-2-(4-ethyl-piperazin-1-yl)-thiazol-4-one]"
14,9.6 nM,"O=C1N=C(N2CC(O)C2)S/C1=C\c1ccc2c(cnn2Cc2ccc(Cl)cc2C(F)(F)F)c1 [Example 68, 5-[1-(4-Chloro-2-trifluoromethyl-benzyl)-1H-indazol-5-ylmethylene]-2-(3-hydroxy-azetidin-1-yl)-thiazol-4-one]"
15,26 nM,"O=C1N=C(N2C[C@@H]3C[C@H]2CN3)S/C1=C\c1ccc2c(cnn2Cc2ccc(C(F)(F)F)cc2C(F)(F)F)c1 [Example 69, 5-[1-(2,4-Bis-trifluoromethyl-benzyl)-1H-indazol-5-ylmethylene]-2-(2S,5S-diaza-bicyclo[2.2.1]hept-2-yl)-thiazol-4-one]"
16,11 nM,"CN1C[C@@H]2C[C@H]1CN2C1=NC(=O)/C(=C/c2ccc3c(cnn3Cc3ccc(C(F)(F)F)cc3C(F)(F)F)c2)S1 [Example 70, 5-[1-(2,4-Bis-trifluoromethyl-benzyl)-1H-indazol-5-ylmethylene]-2-(5-methyl-2S,5S-diaza-bicyclo[2.2.1]hept-2-yl)-thiazol-4-one]"
17,172 nM,"CCOCCN1CCN(C2=NC(=O)/C(=C/c3ccc4c(cnn4Cc4ccc(C(F)(F)F)cc4C(F)(F)F)c3)S2)CC1 [Example 73, 5-[1-(2,4-Bis-trifluoromethyl-benzyl)-1H-indazol-5-ylmethylene]-2-[4-(2-ethoxy-ethyl)-piperazin-1-yl]-thiazol-4-one]"
18,56.2 nM,"CC1(C(=O)O)CCN(C2=NC(=O)/C(=C/c3ccc4c(cnn4Cc4ccc(C(F)(F)F)cc4C(F)(F)F)c3)S2)CC1 [Example 74, 1-{5-[1-(2,4-Bis-trifluoromethyl-benzyl)-1H-indazol-5-ylmethylene]-4-oxo-4,5-dihydro-thiazol-2-yl}-4-methyl-piperidine-4-carboxylic acid]"
19,73.4 nM,"CC1(C(=O)O)CCN(C2=NC(=O)/C(=C/c3ccc4c(cnn4Cc4ccc(Cl)cc4C(F)(F)F)c3)S2)CC1 [Example 75, 1-{5-[1-(4-Chloro-2-trifluoromethyl-benzyl)-1H-indazol-5-ylmethylene]-4-oxo-4,5-dihydro-thiazol-2-yl}-4-methyl-piperidine-4-carboxylic acid]"
20,18.3 nM,"O=C1N=C(N2CCCN(CCO)CC2)S/C1=C\c1ccc2c(cnn2Cc2ccc(Cl)cc2C(F)(F)F)c1 [Example 76, 5-[1-(4-Chloro-2-trifluoromethyl-benzyl)-1H-indazol-5-ylmethylene]-2-[4-(2-hydroxy-ethyl)-[1,4]diazepan-1-yl]-thiazol-4-one]"
21,58.7 nM,"NC1CN(C2=NC(=O)/C(=C/c3ccc4c(cnn4Cc4ccc(C(F)(F)F)cc4C(F)(F)F)c3)S2)C1 [Example 77, 2-(3-Amino-azetidin-1-yl)-5-[1-(2,4-bis-trifluoromethyl-benzyl)-1H-indazol-5-ylmethylene]-thiazol-4-one]"
22,4.5 nM,"CN1C[C@@H]2C[C@H]1CN2C1=NC(=O)/C(=C/c2ccc3c(cnn3Cc3ccc(Cl)cc3C(F)(F)F)c2)S1 [Example 78, 5-[1-(4-Chloro-2-trifluoromethyl-benzyl)-1H-indazol-5-ylmethylene]-2-(5-methyl-2S,5S-diaza-bicyclo[2.2.1]hept-2-yl)-thiazol-4-one]"

# — patent US8399681B2, “Substituted aminothiazolone indazoles as estrogen related receptor-alpha modulators” (Janssen Pharmaceutica NV, priority 2009, dated 2013)
